Measured values: PubChem BioAssay (NCI)
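GI50 marks 50% less growth. TGI is the concentration that stops growth completely.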

Legend:
Assay in all cases: DTP human tumour cell line panel, 384-well format
A549 NSCLC = tested on: A549 NSCLC
COLO 205 colon = tested on: COLO 205 colon
M14 melanoma = tested on: M14 melanoma
SW-620 colon = tested on: SW-620 colon
SK-MEL-5 melanoma = tested on: SK-MEL-5 melanoma
PC-3 prostate = tested on: PC-3 prostate
ACHN renal = tested on: ACHN renal
HOP-62 NSCLC = tested on: HOP-62 NSCLC
NCI-H23 lung = tested on: NCI-H23 lung
MDA-MB-231 breast = tested on: MDA-MB-231 breast
K-562 leukemia = tested on: K-562 leukemia
SF-268 CNS = tested on: SF-268 CNS
NCI-H226 lung = tested on: NCI-H226 lung

CC(=O)OC[C@H]1O[C@@H](n2ccc(=O)[nH]c2=O)[C@H](OC(C)=O)[C@@H]1OC(C)=O
GI50 (A549 NSCLC): > 100 µM | TGI (A549 NSCLC): > 100 µM | GI50 (COLO 205 colon): > 100 µM | TGI (COLO 205 colon): > 100 µM | GI50 (M14 melanoma): > 100 µM | TGI (M14 melanoma): > 100 µM | GI50 (SW-620 colon): > 100 µM | TGI (SW-620 colon): > 100 µM | GI50 (SK-MEL-5 melanoma): > 100000 nM | TGI (SK-MEL-5 melanoma): > 100 µM | GI50 (PC-3 prostate): > 100 µM | TGI (PC-3 prostate): > 100 µM | GI50 (ACHN renal): > 100000 nM | TGI (ACHN renal): > 100 µM | GI50 (HOP-62 NSCLC): > 100 µM | TGI (HOP-62 NSCLC): > 100 µM | GI50 (NCI-H23 lung): > 100 µM | TGI (NCI-H23 lung): > 100 µM | GI50 (MDA-MB-231 breast): > 100 µM | TGI (MDA-MB-231 breast): > 100 µM | GI50 (K-562 leukemia): > 100 µM | TGI (K-562 leukemia): > 100 µM | GI50 (SF-268 CNS): > 100 µM | TGI (SF-268 CNS): > 100 µM | GI50 (NCI-H226 lung): > 100 µM | TGI (NCI-H226 lung): > 100 µM

C#Cc1cccc(Nc2ncnc3cc(OCCOC)c(OCCOC)cc23)c1
GI50 (A549 NSCLC): 3.72 µM | TGI (A549 NSCLC): > 100 µM | GI50 (COLO 205 colon): > 100 µM | TGI (COLO 205 colon): > 100 µM | GI50 (M14 melanoma): 6.72 µM | TGI (M14 melanoma): > 100 µM | GI50 (SW-620 colon): > 100 µM | TGI (SW-620 colon): > 100 µM | GI50 (SK-MEL-5 melanoma): 1940 nM | TGI (SK-MEL-5 melanoma): > 26.3 µM | GI50 (PC-3 prostate): 23 µM | TGI (PC-3 prostate): > 100 µM | GI50 (ACHN renal): 329 nM | TGI (ACHN renal): > 25.8 µM | GI50 (HOP-62 NSCLC): 28.5 µM | TGI (HOP-62 NSCLC): > 100 µM | GI50 (NCI-H23 lung): 25.2 µM | TGI (NCI-H23 lung): > 100 µM | GI50 (MDA-MB-231 breast): > 46.6 µM | TGI (MDA-MB-231 breast): > 100 µM | GI50 (K-562 leukemia): 7.57 µM | TGI (K-562 leukemia): > 100 µM | GI50 (SF-268 CNS): 21.2 µM | TGI (SF-268 CNS): > 72.3 µM | GI50 (NCI-H226 lung): 9.26 µM | TGI (NCI-H226 lung): > 100 µM
